From ChEMBL document CHEMBL1287708, “Synthesis, biological evaluation and radiolabelling by 18F-fluoroarylation of a dopamine D3-selective ligand as prospective imaging probe for PET” (Bioorg Med Chem Lett, 2010) come the findings set out here.

The term logD denotes the decadic logarithm of the distribution of all forms, ionised or not, between an organic phase and buffer at a given pH. Lower therefore signals lower lipophilicity. For orientation: EC50 means the concentration needed to bring the measured effect to its halfway point. In general, Ki refers to the equilibrium dissociation constant of an inhibitor or competing ligand from its target.

Series [1] deals with Striatum. Nature of the series: Drug uptake in Sprague-Dawley rat striatum at 8.5 MBq, iv measured after 45 mins by autoradiography. Particulars: in vivo, 0.75 h. The series is classed as ADME, organism-based.
The subject of series [2] is Cortex. Nature of the series: Drug uptake in Sprague-Dawley rat cortex at 9.3 MBq, iv measured after 45 mins by autoradiography in presence of 1 mg/kg BP897. Particulars: in vivo, 0.75 h. More on the design: dose 1 mg/kg, route intravenous. The series is classed as ADME, organism-based.
The subject of series [3] is Striatum. The series is described as follows: Drug uptake in Sprague-Dawley rat striatum at 9.3 MBq, iv measured after 45 mins by autoradiography in presence of 1 mg/kg BP897. Further details: dose 1 mg/kg, route intravenous. It counts as ADME, organism-based. The following applies: in vivo, 0.75 h.
The nature of series [4]: Lipophilicity, log D of the compound in n-octanol-phosphate buffered saline at pH 7.4. The series is classed as physicochemical.
Series [5] deals with brain ventricle (Rattus norvegicus). The series is described as follows: Drug uptake in Sprague-Dawley rat brain ventricle at 8.5 MBq, iv measured after 45 mins by autoradiography. Particulars: in vivo, 0.75 h.
Series [6] has as its system Cortex. The series is described as follows: Drug uptake in Sprague-Dawley rat cortex at 8.5 MBq, iv measured after 45 mins by autoradiography. The series is classed as ADME, organism-based. The following applies: in vivo, 0.75 h.
Series [7] deals with brain ventricle (Rattus norvegicus). Nature of the series: Drug uptake in Sprague-Dawley rat brain ventricle at 9.3 MBq, iv measured after 45 mins by autoradiography in presence of 1 mg/kg BP897. Particulars: in vivo, 0.75 h.
The target in series [8] is T1, D(2) dopamine receptor (Homo sapiens, UniProt P14416). Nature of the series: Agonist activity at human dopamine receptor D2long expressed in CHO10001 cells assessed as stimulation of incorporation [3H]-thymidine incorporation. The series is classed as functional, cell-based.
Series [9] concerns the target T2, D(3) dopamine receptor (Homo sapiens, UniProt P35462). Nature of the series: biochemical.
Description: Displacement of [3H]spiperone from human dopamine D3 receptor expressed in CHO cells
Series [10] in a line: Displacement of [3H]prazosin from alpha1 adrenoceptor in porcine cerebral cortex membranes. The series is classed as cell membranes, Sus scrofa, Membrane.
The target of the next series is T3, D(4) dopamine receptor (Homo sapiens, UniProt P21917).
T3 sequence (P21917 whole entry): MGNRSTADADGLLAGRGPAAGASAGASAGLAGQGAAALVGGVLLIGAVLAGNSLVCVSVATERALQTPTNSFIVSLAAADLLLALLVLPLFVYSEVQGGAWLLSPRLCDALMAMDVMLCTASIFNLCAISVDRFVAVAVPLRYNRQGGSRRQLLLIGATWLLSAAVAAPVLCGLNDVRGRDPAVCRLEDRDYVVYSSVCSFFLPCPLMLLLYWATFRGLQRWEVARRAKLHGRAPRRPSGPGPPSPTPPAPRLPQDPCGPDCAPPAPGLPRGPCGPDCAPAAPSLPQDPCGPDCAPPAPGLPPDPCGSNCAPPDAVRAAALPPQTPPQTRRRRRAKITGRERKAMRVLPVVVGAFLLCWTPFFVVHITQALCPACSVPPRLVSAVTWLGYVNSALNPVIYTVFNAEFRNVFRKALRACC
Nature of the series: Displacement of [3H]spiperone from human dopamine D4.4 receptor expressed in CHO cells. The series is classed as cell-based. Background: In a radioligand displacement assay an active substance lowers the binding of a labelled ligand.

Series [11] deals with T2, D(3) dopamine receptor. The series is described as follows: Agonist activity at human dopamine D3 receptor expressed in CHO dhfr-negative cells assessed as stimulation of [3H]-thymidine incorporation. The series is classed as functional, cell-based.
The nature of series [12]: Displacement of [3H][…] from 5-HT1A receptor in porcine cerebral cortex membranes. It counts as cell membranes, Sus scrofa, Membrane.
In series [13] the target is T1, D(2) dopamine receptor. Nature of the series: Displacement of [3H]spiperone from human dopamine D2long receptor expressed in CHO cells. The series is classed as cell-based.
Series [14] concerns the target 5-hydroxytryptamine receptor 2A (Sus scrofa, UniProt P50129). The series is described as follows: Displacement of [3H]ketanserin from 5-HT2 receptor in porcine cerebral cortex membranes. The series is classed as cell membranes, Membrane.
The target of a further series is D(1A) dopamine receptor (Sus scrofa, UniProt P50130). The series is described as follows: Displacement of [3H][…] from dopamine D1 receptor in porcine cerebral cortex membranes. It counts as cell membranes, Membrane.
D(1A) dopamine receptor, sequence (P50130 whole entry): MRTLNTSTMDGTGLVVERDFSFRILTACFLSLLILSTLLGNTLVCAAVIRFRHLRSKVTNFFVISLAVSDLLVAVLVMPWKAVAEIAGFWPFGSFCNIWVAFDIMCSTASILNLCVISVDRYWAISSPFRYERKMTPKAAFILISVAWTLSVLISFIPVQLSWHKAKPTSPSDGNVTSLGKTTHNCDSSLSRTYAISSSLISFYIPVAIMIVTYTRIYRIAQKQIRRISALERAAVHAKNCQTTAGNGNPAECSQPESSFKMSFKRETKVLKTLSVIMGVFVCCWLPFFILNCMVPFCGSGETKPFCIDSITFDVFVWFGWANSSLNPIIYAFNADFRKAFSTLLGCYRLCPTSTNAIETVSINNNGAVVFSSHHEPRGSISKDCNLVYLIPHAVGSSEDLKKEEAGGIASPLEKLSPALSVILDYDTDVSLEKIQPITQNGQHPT

T2 sequence (P35462 whole entry): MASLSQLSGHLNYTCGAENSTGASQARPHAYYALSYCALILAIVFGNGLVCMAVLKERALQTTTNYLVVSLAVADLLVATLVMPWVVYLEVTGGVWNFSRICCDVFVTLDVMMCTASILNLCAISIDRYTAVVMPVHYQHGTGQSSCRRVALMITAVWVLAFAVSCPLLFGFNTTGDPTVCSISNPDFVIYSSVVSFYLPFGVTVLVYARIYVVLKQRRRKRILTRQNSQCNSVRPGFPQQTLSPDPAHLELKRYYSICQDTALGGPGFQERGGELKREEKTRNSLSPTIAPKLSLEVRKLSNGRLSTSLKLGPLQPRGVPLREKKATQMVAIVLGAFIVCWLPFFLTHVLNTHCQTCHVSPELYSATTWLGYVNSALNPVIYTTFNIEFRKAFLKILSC
5-hydroxytryptamine receptor 2A, sequence (P50129 whole entry): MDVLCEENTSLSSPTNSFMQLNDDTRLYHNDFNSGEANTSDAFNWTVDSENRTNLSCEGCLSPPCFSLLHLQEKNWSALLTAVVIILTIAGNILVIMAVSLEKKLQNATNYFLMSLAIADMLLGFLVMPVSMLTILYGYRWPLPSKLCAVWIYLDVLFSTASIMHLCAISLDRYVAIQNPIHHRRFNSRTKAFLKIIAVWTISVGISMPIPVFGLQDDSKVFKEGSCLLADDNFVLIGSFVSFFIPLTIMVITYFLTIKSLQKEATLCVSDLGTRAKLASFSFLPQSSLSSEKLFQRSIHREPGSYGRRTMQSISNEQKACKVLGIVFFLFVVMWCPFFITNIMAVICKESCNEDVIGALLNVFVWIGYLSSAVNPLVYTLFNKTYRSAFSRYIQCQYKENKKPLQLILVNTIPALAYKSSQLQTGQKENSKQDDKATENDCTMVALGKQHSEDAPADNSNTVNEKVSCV
T1 sequence (P14416 whole entry): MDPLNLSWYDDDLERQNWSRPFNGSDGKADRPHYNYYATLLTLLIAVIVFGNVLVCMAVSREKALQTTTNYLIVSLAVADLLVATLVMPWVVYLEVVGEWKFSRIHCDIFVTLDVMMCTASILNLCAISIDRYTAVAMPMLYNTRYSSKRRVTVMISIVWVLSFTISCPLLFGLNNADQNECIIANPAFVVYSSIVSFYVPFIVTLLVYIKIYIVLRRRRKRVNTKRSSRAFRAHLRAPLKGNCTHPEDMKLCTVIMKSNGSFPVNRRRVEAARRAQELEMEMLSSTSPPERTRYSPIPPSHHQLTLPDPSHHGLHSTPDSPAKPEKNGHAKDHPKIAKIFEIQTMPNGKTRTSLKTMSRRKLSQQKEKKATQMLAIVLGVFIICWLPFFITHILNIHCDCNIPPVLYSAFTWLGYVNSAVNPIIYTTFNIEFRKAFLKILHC

Take `COc1ccccc1N1CCN(CCCCNC(=O)/C=C/c2ccc([18F])cc2)CC1`: the Drug uptake with Striatum [1] came to 28851 cpm/mm2; in the series on Cortex [2], 3120 cpm/mm2; in the series with Striatum [3], 3086 cpm/mm2; in [5], 38717 cpm/mm2; in the series on Cortex [6], 32293 cpm/mm2; in series [7] it was 18275 cpm/mm2. In [4], this compound showed a logD of 2.07.

`COc1ccccc1N1CCN(CCCCNC(=O)/C=C/c2ccc(F)cc2)CC1`: the concentration for a half-maximal effect (EC50) is 1.7 nM on D(2) dopamine receptor [8] and 3.9 nM on D(3) dopamine receptor [11]. Besides, the inhibition constant (Ki) on D(3) dopamine receptor [9] was 0.34 nM; in series [10], 5.2 nM; at D(4) dopamine receptor, 43 nM; in series [12], 28 nM; on D(2) dopamine receptor [13], 27 nM; in [14], 330 nM. Moreover, the Ki at D(1A) dopamine receptor was 1100 nM.

On to `N#[11C]c1cccc(N2CCN(CCN3CCC(C(F)(F)F)CC3)C2=O)c1`, for which the inhibition constant Ki was 0.51 nM on D(3) dopamine receptor [9]; 8 nM in [10]; 170 nM on D(4) dopamine receptor; 100 nM in series [12]; 250 nM in [14]; 270 nM on D(1A) dopamine receptor.
